Consider five molecules from paper PMC7814726, “Phytochemical constituents and biological activities of Salvia macrosiphon Boiss” (BMC Chemistry, 2021).

Where two headings read alike, the source gives them in different places. A value given as a limit tells only on which side of the number the result lay.

Data set [1] concerns MDA-MB-231 human breast cancer cell line. Briefly: MTT cytotoxicity assay, MDA-MB-231. It is filed as cell-based. As to conditions: for IC50: Homo sapiens; for selectivity index MDA-MB-231: IC50 HDF / IC50 MDA-MB-231. On the procedure:
(§1) Two different human breast cancer cell lines (MCF-7 and MDA-MB-231), lung cancer cell line (A-549) and normal cell (Human Dermal Fibroblast) were purchased from Pasture Institute of Iran, Tehran, Iran. The medium of RPMI 1640 (PAA, Germany) including sodium bicarbonate and N-hydroxyethylpiperazone-n-2-ethanesulfonic Acid (HEPES, Biosera, England) was used to maintain the cell lines. The medium was enriched with fetal bovine serum (FBS; Gibco, USA) and antibiotics. Then, incubated in air atmosphere enriched 5% CO2 at 37 °C. The cytotoxic activity of all fractions and compounds were examined by the MTT (3-[4,5-dimethylthiazole-2-yl]-2,5-diphenyltetrazolium bromide) (Sigma-Aldrich, USA) assay.
(§2) Cancer is the second leading cause of death and responsible for approximately 13% of mortality in the world. […] One of the efficient approaches to new drugs is screening herbal extracts. In the present study, S. macrosiphon was selected for the possible cytotoxic activity. For this purpose, different fractions of aerial parts of the plants including n-hexane, chloroform, ethyl acetate, and water-soluble fractions were screened towards lung cancer cell line (A549) and breast cancer cell lines (MCF-7 and MDA-MB-231) as well as normal cell, human dermal fibroblasts (HDF), using MTT assay comparing with etoposide as a standard drug (Table 2). The inhibitory concentration, 50% (IC50) values (µg /mL) were calculated by linear regression analysis, expressed in mean ± SD.

For data set [2], the system named is A549 lung cancer cell line. Briefly: MTT cytotoxicity assay, A549. The class given is cell-based, human. To be noted: for IC50: Homo sapiens; for selectivity index A549: IC50 HDF / IC50 A549. Here is the method:
as §1, §2

The test system of data set [3] is MCF-7 human breast cancer cell line. Briefly: MTT cytotoxicity assay, MCF-7. As to conditions: for IC50: Homo sapiens; for selectivity index MCF-7: IC50 HDF / IC50 MCF-7. It is filed as cell-based. On the procedure:
as §1, §2

Data set [4] has as its system Human Dermal Fibroblast (HDF). Briefly: MTT cytotoxicity assay, normal cells. It is filed as cell-based. To be noted: read-out: IC50 HDF. On the procedure: as §1, §2
Details of data set [5]: method as in earlier work. To be noted: earlier report; cited from earlier work.
The mark [6] stands for this setting: MDA-MB-231, read-out: IC50 MDA-MB-231.
[7] abbreviates: MDA-MB-231, MTT assay, isolated compounds, read-out: IC50 MDA-MB-231.
Where [8] appears, read: A549, MTT assay, isolated compounds, read-out: IC50 A549.
Setting [9] is: MCF7, MTT assay, isolated compounds, read-out: IC50 MCF-7.
[10] abbreviates: MTT assay, normal cells, isolated compounds.

For the molecule `C=C[C@]1(C)CCC2[C@@]3(C)CCCC(C)(C)C3CC[C@@]2(C)O1` (stereo partly drawn) [Compound 1, 13-epi manoyl oxide], the IC50 in data set [1] (setting [6]) worked out at 22.2 ± 1.72 µM; in data set [2] (A549, read-out: IC50 A549), 19.4 ± 1.96 µM; in data set [3] (MCF7, read-out: IC50 MCF-7) it was 15.8 ± 0.35 µM; in data set [4], 338 ± 9.2 µM. For the same molecule, the “selectivity index MDA-MB-231” value in data set [1] was 15.2. In addition, in data set [2], the “selectivity index A549” value came to 17.4. The “selectivity index MCF-7” value in data set [3] is reported as 21.4.

In the case of `C=C[C@]1(C)CCC2[C@@]3(C)CCCC(C)(C)C3[C@@H](O)C[C@@]2(C)O1` (stereo partly drawn) [Compound 2, 6α-hydroxy-13-epimanoyl oxide], the melting point was in the range of 95 to 98 °C. Besides, the IC50 in data set [1] (setting [7]) was 120 ± 5.09 µM. Moreover, in data set [2] (setting [8]), the IC50 came out at 170 ± 11.6 µM. The IC50 in data set [3] (setting [9]) amounted to 98 ± 11.3 µM. Moreover, the IC50 in data set [4] (setting [10]) is more than 653 µM.

Take `COc1ccc(-c2cc(=O)c3c(O)cc(OC)cc3o2)cc1` [Compound 3, 5-hydroxy-7,4'-dimethoxyflavone]: the IC50 in data set [1] (setting [7]) was 470 ± 23.1 µM; in data set [2] (setting [8]), 469 ± 22.8 µM; in data set [3] (setting [9]), 428 ± 23.1 µM; in data set [4] (setting [10]), more than 971 µM.

Turning to `CC[C@H](CC[C@@H](C)[C@H]1CC[C@H]2[C@@H]3CC=C4C[C@@H](O)CC[C@]4(C)[C@H]3CC[C@]12C)C(C)C` [Compound 4, β-sitosterol], the IC50 in data set [1] (setting [6]) is more than 100 µM; in data set [2] (A549, read-out: IC50 A549), more than 100 µM; in data set [3] (MCF7, read-out: IC50 MCF-7) it was more than 100 µM. For the same molecule, in data set [5], the cytotoxicity entry is “no activity”.

For the molecule `COc1cc([C@@H]2c3cc4c(cc3[C@@H](O[C@@H]3O[C@@H]5CO[C@@H](C)O[C@H]5[C@H](O)[C@H]3O)[C@H]3COC(=O)[C@H]23)OCO4)cc(OC)c1O` [Etoposide, reference compound], the half-maximal inhibitory concentration (IC50) turned out to be 34.5 ± 0.36 µM in data set [1] (setting [7]); 20.3 ± 0.21 µg/mL in data set [1] (MDA-MB-231, MTT assay, mean ± SD, fractions of S. macrosiphon, read-out: IC50 MDA-MB-231); 28.2 ± 1.32 µM in data set [2] (setting [8]); 16.6 ± 0.78 µg/mL in data set [2] (A549, MTT assay, mean ± SD, fractions of S. macrosiphon, read-out: IC50 A549); 37.5 ± 0.66 µM in data set [3] (setting [9]); 22.1 ± 0.39 µg/mL in data set [3] (MCF7, MTT assay, mean ± SD, fractions of S. macrosiphon, read-out: IC50 MCF-7). In addition, the IC50 in data set [4] (setting [10]) was 158 ± 2.04 µM; in data set [4] (MTT assay, normal cells, mean ± SD, fractions of S. macrosiphon) it was 92.7 ± 1.2 µg/mL. For the same molecule, the “selectivity index MDA-MB-231” value in data set [1] was 4.6. Moreover, the “selectivity index A549” value in data set [2] turned out to be 5.6. The “selectivity index MCF-7” value in data set [3] was found to be 4.2.
